Source: US6380255B1, “Treatment for dermal skin atrophy using thyroid hormone compounds or thyroid hormone-like compounds” (Karo Bio AB, priority 1995, dated 2002)
Where “and” joins values, the source holds several entries; their conditions need not be identical. Equal values may be shown once.

Tested on: Balb/c mice
Test: Prevention of glucocorticoid (betamethasone)-induced dermal atrophy in normal mice, dermis thickness in Van Gieson stained biopsies
Type: in vivo, mouse
Conditions: for Thickness of dermis, mean (mm) / Thickness of dermis (mm) in 5 low power fields (×10): one week
Description: Normal Balb/c mice were used for the experiments. […] Therefore each averaged measurement represents 25 determinations.
In FIGS. 1-3, the arrows show the dermal layer which is predominantly collagen fibers.

[1] = Bet. 0.2 mM + 0.0008 mM test compound, topical daily
[2] = Bet. 0.2 mM + 0.008 mM test compound, topical daily
[3] = Bet. 0.2 mM + 0.08 mM test compound, topical daily
[4] = Bet. 0.2 mM + 0.8 mM test compound, topical daily

Appearance of dermis in biopsy micrograph (FIG. 1) (betamethasone alone for one week) | Compound | Thickness of dermis, mean (mm) (Bet. 0.2 mM + placebo cr. (hydrophilic cream)) | Thickness of dermis (mm) in 5 low power fields (×10) (Bet. 0.2 mM + placebo cr. (hydrophilic cream), listed as Bet.) | Thickness of dermis, mean (mm) (Betamethasone 0.2 mM alone, 100 μl topical daily) | Thickness of dermis (mm) in 5 low power fields (×10) [1] | Thickness of dermis, mean (mm) [1] | Thickness of dermis (mm) in 5 low power fields (×10) [2] | Thickness of dermis, mean (mm) [2] | Thickness of dermis (mm) in 5 low power fields (×10) [3] | Thickness of dermis, mean (mm) [3] | Thickness of dermis (mm) in 5 low power fields (×10) [4] | Thickness of dermis, mean (mm) [4] | Thickness of dermis (mm) in 5 low power fields (×10) (0.8 mM test compound alone (no betamethasone)) | Appearance of dermis in biopsy micrograph (FIG. 3) (Triac alone for one week) | Concentration at which the effect on betamethasone-induced atrophy saturates (range 0.0008 to 8 mM)
very thinned | C[C@H]1C[C@H]2[C@@H]3CCC4=CC(=O)C=C[C@]4(C)[C@@]3(F)[C@@H](O)C[C@]2(C)[C@@]1(O)C(=O)CO [Betamethasone, betamethasone, reference compound] | 0.40 mm | 0.40 mm and 0.42 mm and 0.38 mm and 0.39 mm | 0.37 mm and 0.42 mm | – | – | – | – | – | – | – | – | – | – | –
– | OCc1cc(I)c(Oc2ccc(O)c(I)c2)c(I)c1 [KB-026, 4-(4-hydroxymethyl-2,6-diiodophenoxy)-2-iodo-phenol] | – | – | – | 0.40 mm and 0.41 mm and 0.42 mm | 0.41 mm | 0.45 mm and 0.42 mm and 0.46 mm and 0.44 mm | 0.44 mm | 0.44 mm and 0.50 mm and 0.49 mm and 0.46 mm | 0.48 mm | 0.50 mm and 0.52 mm and 0.48 mm and 0.51 mm | 0.50 mm | – | – | –
– | CC(C)c1cc(Oc2c(Br)cc(Cc3nnn[nH]3)cc2Br)ccc1O [KB-067, 4-[2,6-dibromo-4-(1H-tetrazol-5-ylmethyl)-phenoxy]-2-isopropyl-phenol] | – | – | – | 0.42 mm and 0.39 mm and 0.40 mm | 0.40 mm | 0.40 mm and 0.39 mm and 0.41 mm | 0.40 mm | 0.40 mm and 0.41 mm and 0.39 mm | 0.40 mm | 0.45 mm and 0.46 mm and 0.47 mm and 0.48 mm | 0.46 mm | – | – | –
– | O=C(O)Cc1cc(I)c(Oc2ccc(O)c(I)c2)c(I)c1 [TriAc, [4-(4-hydroxy-3-iodophenoxy)-3,5-diiodophenyl]acetic acid] | – | – | – | 0.40 mm and 0.36 mm and 0.38 mm | 0.38 mm | 0.40 mm and 0.44 mm | 0.45 mm | – | – | – | – | 0.72 mm and 0.82 mm and 0.84 mm and 0.76 mm | very dense and thicker than that shown in FIG. 2 | approximately 0.8 mM
– | O=C(O)CCc1cc(I)c(Oc2ccc(O)c(I)c2)c(I)c1 [TriProp] | – | – | – | 0.41 mm and 0.40 mm and 0.46 mm | 0.42 mm | 0.45 mm and 0.50 mm and 0.40 mm and 0.42 mm and 0.48 mm | 0.45 mm | 0.50 mm and 0.48 mm and 0.47 mm and 0.44 mm | 0.48 mm | 0.50 mm and 0.45 mm and 0.47 mm and 0.48 mm and 0.52 mm | 0.48 mm | – | – | –
